Results reported in PubChem BioAssay (NCI).
“And” between values parts separate entries of the source, which are not always exact repeats. Equal entries are not always repeated.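 Each compound was tested at five concentrations against cells in 96-well plates for 48 hours. At the GI50, growth is halved. Definition used: TGI = concentration required for complete inhibition of growth.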

Legend:
Experiment in all cases: DTP human tumour cell line panel, 48 h
ACHN renal = tested on: ACHN renal
RPMI-8226 leukemia = tested on: RPMI-8226 leukemia
HCC-2998 colon = tested on: HCC-2998 colon
MOLT-4 leukemia = tested on: MOLT-4 leukemia
HS 578T breast = tested on: HS 578T breast
SW-620 colon = tested on: SW-620 colon
UO-31 renal = tested on: UO-31 renal
LOX IMVI melanoma = tested on: LOX IMVI melanoma
CCRF-CEM leukemia = tested on: CCRF-CEM leukemia
DU-145 prostate = tested on: DU-145 prostate

SMILES | TGI (ACHN renal) | TGI (RPMI-8226 leukemia) [µM] | TGI (HCC-2998 colon) [µM] | TGI (MOLT-4 leukemia) | TGI (HS 578T breast) [µM] | TGI (SW-620 colon) | TGI (UO-31 renal) [µM] | TGI (LOX IMVI melanoma) [µM] | TGI (CCRF-CEM leukemia) [µM] | GI50 (ACHN renal) [µM] | GI50 (RPMI-8226 leukemia) [µM] | GI50 (MOLT-4 leukemia) [nM] | GI50 (HS 578T breast) [µM] | GI50 (SW-620 colon) [µM] | GI50 (UO-31 renal) [µM] | GI50 (LOX IMVI melanoma) [µM] | GI50 (CCRF-CEM leukemia) [µM] | GI50 (DU-145 prostate) [µM] | TGI (DU-145 prostate) [µM] | GI50 (HCC-2998 colon) [nM]
Cc1nc(Cl)nc(Cl)c1C | > 100 µM | > 100 | > 100 | > 100 µM | > 100 | > 100 µM | > 100 | > 100 | > 100 | – | – | – | – | – | – | – | – | – | – | –
COc1cc(/C=C2/C(=O)N(C(=O)OC(C)C)C(Cc3cc(OC)c(OC)c(C)c3OC)C(=O)N2Cc2ccccc2)c(OC)c(C)c1OC (stereo not given) | > 100 µM | > 100 | > 100 | 44.1 µM | – | > 100 µM | > 100 | > 100 | > 100 | – | – | – | – | – | – | – | – | – | – | –
COc1ccc(C(=O)OCC2OC(n3cnc4c(=S)nc[nH]c43)C(OC(=O)c3ccc(OC)cc3)C2OC(=O)c2ccc(OC)cc2)cc1 (stereo not given) | > 100 µM | > 100 | > 100 | > 100 µM | – | > 100 µM | > 100 | – | 93.3 | – | – | – | – | – | – | – | – | – | – | –
CCOC(=O)C12CCCC1(O)N(NC(=O)c1ccccc1)C(C)=C2C(=O)OC (stereo not given) | > 100 µM | > 100 | > 100 | > 100 µM | – | > 100 µM | > 100 | > 100 | > 100 | – | – | – | – | – | – | – | – | – | – | –
COC(=O)C1=C2CCC(=O)[C@@]2(C)C(OC(C)=O)C=CC1 (stereo not given in full) | > 100 µM | > 100 | > 100 | > 100 µM | – | > 100 µM | > 100 | – | > 100 | – | – | – | – | – | – | – | – | – | – | –
CC1CC2(C)ON=C(c3ccccc3)N2c2ccccc2S1 (stereo not given) | – | 69.2 | – | 44.9 µM | – | – | – | 50.1 | 77.6 | 32.8 | 20.4 | 16000 | 46.2 | 39.3 | 28.1 | 22 | 28.1 | 54.5 | – | –
O=C(O)C(CP(=O)(O)O)=C(Cl)Cl | > 100 µM | > 100 | > 100 | > 100 µM | – | > 100 µM | > 100 | > 100 | > 100 | – | – | – | – | – | – | – | – | – | – | –
CC(=O)OC(/C=C1/C=CC(=O)O1)COC(=O)c1ccccc1 (stereo not given) | > 31.2 µM | > 31.2 | > 31.2 | – | – | > 31.2 µM | > 31.2 | > 31.2 | > 31.2 | – | – | – | – | – | – | – | – | – | – | –
COc1ccc2c(=O)c(C)c(-c3ccccc3)oc2c1CN(C)C | > 100 µM | > 100 | > 100 | > 100 µM | – | > 100 µM | > 100 | > 100 | > 100 | – | – | – | – | – | – | – | – | – | – | –
Cc1ccc(NC(=O)CCC(CC(=O)C(C)(C)C)=NNC(=O)C(=O)NN)cc1C | > 100 µM | > 100 | > 100 | > 100 µM | – | > 100 µM | > 100 | > 100 | > 100 | – | – | – | – | – | – | – | – | – | – | –
CC1=C(C(=O)Nc2ccc(F)c(Cl)c2)C(c2ccccc2Cl)NC(=S)N1 (stereo not given) | > 50 µM | > 50 | – | > 50 µM | > 50 | > 50 µM | > 50 | > 50 | > 50 | 17.5 | 38.3 | > 50000 | > 50 | > 50 | 21.3 | 15.1 | > 50 | > 50 | > 50 | –
CCC[CH2][Sn]1([CH2]CCC)[O]C(=O)c2cc(I)cc(I)c2[O]1 | 2.63 µM | 1.16 | 2.7 | 1.76 µM | – | 1.57 µM | 2.82 | 2.39 | 0.79 | 1.35 | 0.238 | 344 | – | 0.367 | 1.49 | 0.8 | 0.22 | – | – | 1370
Cc1cc2c(cc1Cl)SC1=CC(=O)N(c3ccccc3)C1=NS2(=O)=O | > 100 µM | 36.5 | – | > 100 µM | – | > 100 µM | > 100 | 61.1 | 95.5 | 26.6 | 14.4 | 31700 | – | 33.1 | 54 | 26.2 | 24.8 | 59.4 | > 100 | –
O=c1cc(-c2cccc(C(F)(F)F)c2)[nH]c2cc3c(cc12)OCO3 | 50 µM and > 100 µM | > 100 | – | 50 µM and > 100 µM | 17.5 | 50 µM and > 100 µM | – | – | – | 30.5 | – | 338 | – | 0.326 | 0.315 | – | – | – | – | 493
COC(=O)/C=C1/CCC2[C@@H](C(=O)CC3[C@]2(C)CCC[C@@]3(C)C(=O)OC)C1C (stereo not given in full) | 24.2 µM | 14.4 | 39.8 | 19.1 µM | – | 22.5 µM | 37.5 | – | 17.6 | – | – | – | – | – | – | – | – | – | – | –
CCOC(C)C(/C=N/NC(N)=S)=NNC(N)=S (stereo not given) | > 100 µM | > 100 | > 100 | > 100 µM | – | > 100 µM | > 77.2 | > 100 | > 100 | – | – | – | – | – | – | – | – | – | – | –
COc1cc(/C=C2\[C@H]3c4c(c(OC)c(C)c(OC)c4OC)C[C@@H](C(=O)N2Cc2ccccc2)N3C(=O)OCC(C)C)c(OC)c(C)c1OC | > 100 µM | > 100 | > 100 | > 100 µM | – | > 31.6 µM | > 100 | > 100 | > 100 | – | – | – | – | – | – | – | – | – | – | –
C/C(=C\C(C)COCc1ccccc1)[C@H](COCc1ccccc1)OCc1ccccc1 (stereo not given in full) | > 100 µM | > 100 | > 100 | > 100 µM | – | > 100 µM | > 100 | > 100 | > 100 | – | – | – | – | – | – | – | – | – | – | –
O=S(=O)(/C=C/c1ccc(Cl)cc1Cl)Cc1ccccc1CS(=O)(=O)/C=C/c1ccc(Cl)cc1Cl | > 100 µM | > 100 | > 100 | > 100 µM | – | > 100 µM | > 100 | > 100 | > 100 | – | – | – | – | – | – | – | – | – | – | –
c1ccc(Cn2cc3c(c2-c2ccccc2)CCc2cnoc2-3)cc1 | > 100 µM | > 100 | – | 6.98 µM | 26.4 | 53.9 µM | > 100 | > 100 | > 100 | 9.36 | 3.1 | 2190 | 3.88 | 3.15 | 7.65 | 4.23 | 3.59 | 20.1 | > 100 | –
